Each structure is given as a SMILES string.

The target of test [1] is T1, JAK3 enzyme (Homo sapiens, UniProt P52333).
T1 sequence (P52333 1-1124): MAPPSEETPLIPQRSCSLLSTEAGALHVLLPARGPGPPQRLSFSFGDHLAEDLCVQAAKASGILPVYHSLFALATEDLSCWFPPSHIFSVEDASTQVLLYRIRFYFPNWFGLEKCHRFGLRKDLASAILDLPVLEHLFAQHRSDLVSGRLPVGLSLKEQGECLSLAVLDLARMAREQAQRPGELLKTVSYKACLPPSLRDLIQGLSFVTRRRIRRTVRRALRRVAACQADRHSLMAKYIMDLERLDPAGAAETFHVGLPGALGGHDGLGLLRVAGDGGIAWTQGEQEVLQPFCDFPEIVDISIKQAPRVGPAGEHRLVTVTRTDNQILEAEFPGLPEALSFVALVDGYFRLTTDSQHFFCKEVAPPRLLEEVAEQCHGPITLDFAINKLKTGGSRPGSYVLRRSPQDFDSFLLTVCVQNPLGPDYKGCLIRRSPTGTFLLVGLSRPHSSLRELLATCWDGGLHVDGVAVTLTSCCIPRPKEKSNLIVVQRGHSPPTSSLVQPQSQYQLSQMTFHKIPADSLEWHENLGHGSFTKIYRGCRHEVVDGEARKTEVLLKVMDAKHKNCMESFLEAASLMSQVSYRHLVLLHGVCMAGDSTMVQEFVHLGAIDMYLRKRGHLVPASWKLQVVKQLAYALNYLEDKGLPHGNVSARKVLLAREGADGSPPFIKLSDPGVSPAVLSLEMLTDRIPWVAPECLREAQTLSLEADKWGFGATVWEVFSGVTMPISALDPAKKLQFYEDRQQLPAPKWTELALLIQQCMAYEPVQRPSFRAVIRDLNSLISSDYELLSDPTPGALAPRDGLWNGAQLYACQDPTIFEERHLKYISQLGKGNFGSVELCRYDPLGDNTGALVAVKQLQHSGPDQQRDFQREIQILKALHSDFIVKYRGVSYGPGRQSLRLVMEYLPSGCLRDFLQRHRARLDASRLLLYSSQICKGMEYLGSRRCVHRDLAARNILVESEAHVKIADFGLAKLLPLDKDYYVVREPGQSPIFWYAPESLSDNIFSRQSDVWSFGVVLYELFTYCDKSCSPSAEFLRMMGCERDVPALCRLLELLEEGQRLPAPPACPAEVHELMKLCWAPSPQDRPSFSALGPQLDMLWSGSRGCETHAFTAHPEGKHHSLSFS
The experiment in a line: JAK Caliper Enzyme Assay at 4 μM ATP. The format is biochemical. In short, it runs like this: (§1)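 Compound tested as 11-point half-log DMSO dilution series (top 600 μM in DMSO, a dilution-plate level). Enzyme level and time set for 20%-30% peptide phosphorylation; phosphorylated and unphosphorylated peptide separated and quantified by Caliper LC3000 mobility shift.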

The subject of test [2] is IL-15 induced P-STAT5 in human PBMC. The experiment in a line: PBMC IL-15 Induced P-STAT5. As to conditions: human PBMC, IL-15 final 41 ng/mL; read-out: PBMC IL15_pSTAT5_IC50. The test is classed as cell-based. In short, it runs like this:
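Thawed human PBMC, rested in human plasma, were preincubated 15 min at 37 °C with compound (0.2% DMSO), then stimulated 15 min with IL-15 at 41 ng/mL final. After paraformaldehyde fixation and methanol permeabilisation, Alexa Fluor 647 anti-STAT5 staining overnight at 4 °C was analysed by flow cytometry on total lymphocytes.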

The target in test [3] is T1, JAK3 enzyme. The experiment in a line: JAK Caliper Enzyme Assay at 1 mM ATP. The test is classed as biochemical. In short, it runs like this:
as §1

Test [4] relates to IL-15 induced STAT5 phosphorylation in human whole blood lymphocytes. The experiment in a line: HWB IL-15 Induced STAT5 Phosphorylation Assay. The format is cell-based. As to conditions: Lymphocyte, IL-15 final 50 ng/ml, read-out: HWB_IL15 pSTAT5 IC50. The method, then:
HWB IL-15 Induced STAT5 Phosphorylation Assay
After serial dilution of the test compounds 1:2 in DMSO at desired concentration (500× of final), the compounds were further diluted in PBS (by adding 4 μL compound/DMSO in 96 μL PBS, [DMSO]=4%, 20× final). To 96-well polypropylene plates were added 90 μl HWB (heparin treated Human Whole Blood)/well, followed by 5 μl/well 4% DMSO in D-PBS or various concentrations of 20× inhibitor in 4% DMSO in D-PBS (w/o Ca^+2 or Mg^+2) to give 1× in 0.2% DMSO. After mixing and incubating for 45 minutes at 37° C., 5 μl D-PBS (unstimulated control) or 20× stocks of 5 μl human IL-15 (final concentration is 50 ng/ml) were added, and mixed three times. After incubating 15 minutes at 37° C., 1× Lyse/Fix Buffer (BD Phosflow 5× Lyse/Fix Buffer) was added to all wells at 1000 μl/well, then incubated for 20 minutes at 37° C. and spun 5 mins at 1200 rpm. After washing in 1000 μl FACS buffer 1× and spinning for 5 mins at 1200 rpm, 400 μl ice cold Perm Buffer III were added to each well. After mixing gently (1-2×) and incubating on ice for 30 minutes, spinning for 5 mins at 1200 rpm without interruption, and washing 1× in cold […] FACS buffer (D-PBS containing 0.1% BSA and 0.1% sodium azide) 250 μl/well of the desired AlexaFluor647-conjugated anti-phospho STATS antibody at 1:125 dilution in FACS buffer was added. Following incubating at 4° C. over night, all the samples were transferred to 96-well polypropylene U-bottom plate, and checked by flow cytometry gated on total lymphocytes.

On to `C=CC(=O)N1CCN(c2cnc3[nH]cc(C(=O)NCC(C)CC(F)(F)F)c3n2)CC1` (racemic) [Example 279, Racemic-2-(4-acryloylpiperazin-1-yl)-N-(4,4,4-trifluoro-2-methylbutyl)-5H-pyrrolo[2,3-b]pyrazine-7-carboxamide], for which the IC50 came out at 0.343 nM at JAK3 enzyme [1], 107 nM in test [2], 31 nM at JAK3 enzyme [3] and 765 nM in test [4].

Take `C=CC(=O)N1CCN(c2cnc3[nH]cc(C(=O)NCC4CCCC4)c3n2)CC1` [Example 266, 2-(4-acryloylpiperazin-1-yl)-N-(cyclopentylmethyl)-5H-pyrrolo[2,3-b]pyrazine-7-carboxamide]: the IC50 against JAK3 enzyme [1] stood at 0.2 nM; in test [2], 64.2 nM; against JAK3 enzyme [3] it was 22 nM; in test [4], 528 nM.

On to `C=CC(=O)N1CCC(Nc2cnc3[nH]cc(C(=O)NCC4CCC4)c3n2)CC1` [Example 193, 2-[(1-acryloylpiperidin-4-yl)amino]-N-(cyclobutylmethyl)-5H-pyrrolo[2,3-b]pyrazine-7-carboxamide], for which the IC50 is 0.393 nM against JAK3 enzyme [1], 68.4 nM in test [2], 5 nM on JAK3 enzyme [3] and 637 nM in test [4].

For `C=CC(=O)N1CCC(Oc2cnc3[nH]cc(C(=O)NCCC(F)(F)F)c3n2)CC1` [Example 198, 2-[(1-acryloylpiperidin-4-yl)oxy]-N-(3,3,3-trifluoropropyl)-5H-pyrrolo[2,3-b]pyrazine-7-carboxamide], the IC50 at JAK3 enzyme [1] was found to be 0.361 nM; in test [2], 250 nM; against JAK3 enzyme [3] it was 53 nM; in test [4], 1400 nM.

With `C=CC(=O)N1CCN(c2cnc3[nH]cc(C(=O)NC4CCC4)c3n2)CC1` [Example 297, 2-(4-acryloylpiperazin-1-yl)-N-cyclobutyl-5H-pyrrolo[2,3-b]pyrazine-7-carboxamide], the IC50 on JAK3 enzyme [1] is 0.43 nM; in test [2], 150 nM; on JAK3 enzyme [3], 45 nM; in test [4], 718 nM.

On to `C=CC(=O)N1CCC(Nc2cnc3[nH]cc(C(=O)NCc4ccc(OC(F)F)cc4)c3n2)CC1` [Example 181, 2-[(1-acryloylpiperidin-4-yl)amino]-N-[4-(difluoromethoxy)benzyl]-5H-pyrrolo[2,3-b]pyrazine-7-carboxamide], for which the IC50 was determined as 0.379 nM on JAK3 enzyme [1], 159 nM in test [2], 5 nM against JAK3 enzyme [3] and 1820 nM in test [4].

Turning to `C=CC(=O)N1CCC(Oc2cnc3[nH]cc(C(=O)N[C@@H]4CC[C@H](F)C4)c3n2)CC1` [Example 199, 2-[(1-acryloylpiperidin-4-yl)oxy]-N-[(1R,3S)-3-fluorocyclopentyl]-5H-pyrrolo[2,3-b]pyrazine-7-carboxamide], the IC50 stood at 0.414 nM at JAK3 enzyme [1], 250 nM in test [2], 47 nM against JAK3 enzyme [3] and 2020 nM in test [4].

Consider `C=CC(=O)N1CCN(c2cnc3[nH]cc(C(=O)NCC(C)(C)C)c3n2)CC1` [Example 304, 2-(4-acryloylpiperazin-1-yl)-N-(2,2-dimethylpropyl)-5H-pyrrolo[2,3-b]pyrazine-7-carboxamide], for which the IC50 turned out to be 0.194 nM against JAK3 enzyme [1], 96.8 nM in test [2], 29 nM against JAK3 enzyme [3] and 524 nM in test [4].

With `C=CC(=O)N1CCC(Nc2cnc3[nH]cc(C(=O)NCc4ccc(F)c(OC)c4)c3n2)CC1` [Example 174, 2-[(1-acryloylpiperidin-4-yl)amino]-N-(4-fluoro-3-methoxybenzyl)-5H-pyrrolo[2,3-b]pyrazine-7-carboxamide], the IC50 was determined as 0.368 nM on JAK3 enzyme [1], 162 nM in test [2], 13 nM against JAK3 enzyme [3] and 1730 nM in test [4].

Consider `C=CC(=O)N1CCC(Nc2cnc3[nH]cc(C(=O)NCc4ccc(OC)c(F)c4)c3n2)CC1` [Example 190, 2-[(1-acryloylpiperidin-4-yl)amino]-N-(3-fluoro-4-methoxybenzyl)-5H-pyrrolo[2,3-b]pyrazine-7-carboxamide], for which the IC50 on JAK3 enzyme [1] was 0.193 nM; in test [2], 96.9 nM; against JAK3 enzyme [3], 7 nM; in test [4] it was 619 nM.

For the compound `C=CC(=O)N1CC[C@@H](Nc2cnc3[nH]cc(C(=O)NCC4CCCC4)c3n2)[C@@H](OC)C1` [Example 313, 2-{[(3S,4R)-1-acryloyl-3-methoxypiperidin-4-yl]amino}-N-(cyclopentylmethyl)-5H-pyrrolo[2,3-b]pyrazine-7-carboxamide], the IC50 at JAK3 enzyme [1] was found to be 0.736 nM; in test [2], 243 nM; against JAK3 enzyme [3], 46 nM; in test [4], 986 nM.

In the case of `C=CC(=O)N1CC[C@@H](Nc2cnc3[nH]cc(C(=O)NCC(C)CC(F)(F)F)c3n2)[C@@H](OC)C1` (mixture of isomers) [Example 269, Racemic-2-{[(3S,4R)-1-acryloyl-3-methoxypiperidin-4-yl]amino}-N-(4,4,4-trifluoro-2-methylbutyl)-5H-pyrrolo[2,3-b]pyrazine-7-carboxamide], the IC50 is 0.888 nM on JAK3 enzyme [1], 220 nM in test [2], 82 nM at JAK3 enzyme [3] and 1390 nM in test [4].

For the compound `C=CC(=O)N1CCN(c2cnc3[nH]cc(C(=O)NCCC(F)(F)F)c3n2)C[C@@H]1CC(C)C` [Example 329, 2-[(3S)-4-acryloyl-3-(2-methylpropyl)piperazin-1-yl]-N-(3,3,3-trifluoropropyl)-5H-pyrrolo[2,3-b]pyrazine-7-carboxamide], the IC50 was found to be 0.587 nM against JAK3 enzyme [1], 247 nM in test [2], 60 nM against JAK3 enzyme [3] and 6290 nM in test [4].

In the case of `C=CC(=O)N1CCC(Nc2cnc3[nH]cc(C(=O)NCc4cc(C(C)C)no4)c3n2)CC1` [Example 175, 2-[(1-acryloylpiperidin-4-yl)amino]-N-{[3-(propan-2-yl)-1,2-oxazol-5-yl]methyl}-5H-pyrrolo[2,3-b]pyrazine-7-carboxamide], the IC50 on JAK3 enzyme [1] worked out at 0.426 nM; in test [2], 77.3 nM; at JAK3 enzyme [3] it was 8 nM; in test [4], 1320 nM.

Turning to `C=CC(=O)N1CCC(Nc2cnc3[nH]cc(C(=O)NCc4sc(C)nc4C(F)(F)F)c3n2)CC1` [Example 195, 2-[(1-acryloylpiperidin-4-yl)amino]-N-{[2-methyl-4-(trifluoromethyl)-1,3-thiazol-5-yl]methyl}-5H-pyrrolo[2,3-b]pyrazine-7-carboxamide], the IC50 amounted to 0.494 nM against JAK3 enzyme [1], 82.7 nM in test [2], 7 nM against JAK3 enzyme [3] and 688 nM in test [4].
